Measured values taken from ChEMBL document CHEMBL4428076 (J Med Chem, 2016).
Activity calls are given as the source filed them. The rule behind the calls is not given here.

Columns and labels:
[1] = biological target: T1, Mu-type opioid receptor (Homo sapiens, UniProt P35372); test: Activation of mu opioid receptor-1 (unknown origin) expressed in CHO cells assessed as beta-arrestin-2 recruitment at 10 uM after 90 mins by beta-galactosidase complementation assay; assay type: cell-based; conditions: 1.5 h
[2] = biological target: T2, Delta-type opioid receptor (Mus musculus, UniProt P32300); test: Antagonist activity at mouse delta opioid receptor-1 expressed in CHO cell membranes assessed as inhibition of DPDPE-induced [35S]GTPgammaS binding incubated for 60 mins by scintillation spectroscopic analysis; assay type: functional
[3] = biological target: T3, Kappa-type opioid receptor (Mus musculus, UniProt P33534); test: Antagonist activity at mouse kappa opioid receptor-1 expressed in CHO cell membranes assessed as inhibition of U50,488H-induced [35S]GTPgammaS binding incubated for 60 mins by scintillation spectroscopic analysis; assay type: functional
[4] = system: Mus musculus; test: Antinociceptive activity in sc dosed CD-1 mouse assessed as increase in reaction time measured 15 mins post dose by radiant heat tail flick assay; assay type: functional; conditions: CD-1, sc, 0.25 h
[5] = biological target: T4, Mu-type opioid receptor (Mus musculus, UniProt P42866); test: Displacement of [125I]-IBNtxA from mouse mu opioid receptor-1 expressed in CHO cell membranes incubated for 90 mins
[6] = biological target: T2, Delta-type opioid receptor; test: Displacement of [125I]-IBNtxA from mouse delta opioid receptor-1 expressed in CHO cell membranes incubated for 90 mins
[7] = biological target: Mu-type opioid receptor (Mus musculus) (UniProt P42866); test: Agonist activity at mouse mu opioid receptor-1 expressed in CHO cell membranes assessed as [35S]GTPgammaS binding incubated for 60 mins by scintillation spectroscopic analysis relative to DAMGO; assay type: functional
[8] = biological target: T4, Mu-type opioid receptor; test: Agonist activity at mouse mu opioid receptor-1 expressed in CHO cell membranes assessed as [35S]GTPgammaS binding incubated for 60 mins by scintillation spectroscopic analysis; assay type: functional
[9] = biological target: T3, Kappa-type opioid receptor; test: Displacement of [125I]-IBNtxA from mouse kappa opioid receptor-1 expressed in CHO cell membranes incubated for 90 mins
[10] = biological target: T2, Delta-type opioid receptor; test: Agonist activity at mouse delta opioid receptor-1 expressed in CHO cell membranes assessed as [35S]GTPgammaS binding incubated for 60 mins by scintillation spectroscopic analysis; assay type: functional
[11] = biological target: Delta-type opioid receptor (Mus musculus) (UniProt P32300); test: Agonist activity at mouse delta opioid receptor-1 expressed in CHO cell membranes assessed as [35S]GTPgammaS binding incubated for 60 mins by scintillation spectroscopic analysis relative to DPDPE; assay type: functional
[12] = biological target: T1, Mu-type opioid receptor; test: Inhibition of DAMGO-induced beta-arrestin-2 recruitment at mu opioid receptor-1 (unknown origin) expressed in CHO cells preincubated for 30 mins followed by DAMGO addition measured after 90 mins by beta-galactosidase complementation assay; assay type: cell-based
[13] = organism: Mus musculus; test: animal or person; conditions: CD-1, sc, 0.5 h
Description: Antinociceptive activity in sc dosed CD-1 mouse assessed as increase in reaction time measured 30 mins post dose by radiant heat tail flick assay

[14] = organism: Mus musculus; test: animal or person; conditions: CD-1, sc, 0.5 h; remark: listed apart in the source
Description: Antinociceptive activity in sc dosed CD-1 mouse assessed as increase in latency latency to respond with hind paw lick or shake/flutter measured 30 mins post dose by hot plate test

[15] = system: Mus musculus; test: Antinociceptive activity in sc dosed CD-1 mouse assessed as increase in reaction time administered twice daily at dosing intervals of 12 hrs for 5 days by radiant heat tail flick assay; assay type: functional; conditions: CD-1, sc
[16] = system: Mus musculus; test: Antinociceptive activity in CD-1 mouse assessed as increase in reaction time at 0.75 ug, icv administered on day 6 after MOR1-exon1 antisense oligodeoxynucleotide injection on day 1, 3 and 5 by radiant heat tail flick assay; assay type: functional, organism-based
[17] = system: Mus musculus; test: Antinociceptive activity in CD-1 mouse assessed as increase in reaction time at 10 ug, icv administered on day 6 after DOR1-exon3 antisense oligodeoxynucleotide injection on day 1, 3 and 5 by radiant heat tail flick assay; assay type: functional, organism-based

T2 sequence (P32300 whole entry): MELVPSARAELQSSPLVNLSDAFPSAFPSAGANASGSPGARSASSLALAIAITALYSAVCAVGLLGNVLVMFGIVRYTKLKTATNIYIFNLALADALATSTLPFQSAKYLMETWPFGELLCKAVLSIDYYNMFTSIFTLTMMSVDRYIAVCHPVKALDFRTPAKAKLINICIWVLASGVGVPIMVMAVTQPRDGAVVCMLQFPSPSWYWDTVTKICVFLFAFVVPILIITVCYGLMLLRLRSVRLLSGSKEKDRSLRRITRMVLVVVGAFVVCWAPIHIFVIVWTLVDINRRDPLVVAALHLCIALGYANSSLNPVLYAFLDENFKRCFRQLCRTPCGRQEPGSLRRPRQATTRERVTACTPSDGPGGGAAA
T4 sequence (P42866 whole entry): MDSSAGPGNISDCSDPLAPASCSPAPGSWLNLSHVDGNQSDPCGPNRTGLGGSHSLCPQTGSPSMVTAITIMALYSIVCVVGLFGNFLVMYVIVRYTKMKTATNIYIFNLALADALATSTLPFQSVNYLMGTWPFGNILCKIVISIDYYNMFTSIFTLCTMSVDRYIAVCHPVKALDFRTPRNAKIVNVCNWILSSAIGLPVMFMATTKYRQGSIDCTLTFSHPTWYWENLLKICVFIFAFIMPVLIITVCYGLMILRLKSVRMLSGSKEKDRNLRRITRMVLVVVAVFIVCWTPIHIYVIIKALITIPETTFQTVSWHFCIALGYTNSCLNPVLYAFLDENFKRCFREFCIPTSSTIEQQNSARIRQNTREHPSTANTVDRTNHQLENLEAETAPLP
Mu-type opioid receptor (Mus musculus), sequence (P42866 whole entry): as above
T1 sequence (P35372 whole entry): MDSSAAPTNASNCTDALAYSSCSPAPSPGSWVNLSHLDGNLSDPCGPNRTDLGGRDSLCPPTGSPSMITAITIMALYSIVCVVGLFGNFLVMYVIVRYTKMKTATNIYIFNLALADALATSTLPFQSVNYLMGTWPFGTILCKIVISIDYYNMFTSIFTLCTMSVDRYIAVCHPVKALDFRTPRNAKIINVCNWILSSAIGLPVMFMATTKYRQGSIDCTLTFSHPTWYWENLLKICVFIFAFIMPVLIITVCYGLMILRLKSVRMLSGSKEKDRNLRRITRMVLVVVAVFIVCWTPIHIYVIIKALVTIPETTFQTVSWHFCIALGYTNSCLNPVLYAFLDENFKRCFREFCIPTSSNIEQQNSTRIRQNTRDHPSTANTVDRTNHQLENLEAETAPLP
T3 sequence (P33534 whole entry): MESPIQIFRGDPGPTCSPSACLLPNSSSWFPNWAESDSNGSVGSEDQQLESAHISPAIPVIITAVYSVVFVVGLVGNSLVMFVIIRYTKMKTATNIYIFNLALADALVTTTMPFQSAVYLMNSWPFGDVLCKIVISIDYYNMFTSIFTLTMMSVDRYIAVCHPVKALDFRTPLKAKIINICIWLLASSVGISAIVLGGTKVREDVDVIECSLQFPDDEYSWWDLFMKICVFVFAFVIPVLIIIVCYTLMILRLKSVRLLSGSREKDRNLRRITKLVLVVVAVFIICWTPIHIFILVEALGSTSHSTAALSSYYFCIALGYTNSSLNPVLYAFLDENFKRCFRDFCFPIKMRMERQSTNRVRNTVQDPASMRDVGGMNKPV
Delta-type opioid receptor (Mus musculus), sequence (P32300 whole entry): as the sequence (P32300 whole entry) above

SMILES	Activity [1]	IC50 [2]	IC50 [3]	ED50 [4]	Ki [5]	Ki [6]	Emax [7]	EC50 [8]	Ki [9]	other results
CC[C@@H]1CN2CC[C@]3(Nc4ccccc4C3=O)[C@@H]2C[C@@H]1/C(=C\OC)C(=O)OC	Not Active	193 nM	252 nM	0.24 mg/kg	0.46 nM	2.9 nM	116%	1.4 nM	19 nM	–
CC[C@@H]1CN2CCc3c([nH]c4cccc(OC)c34)[C@@H]2C[C@@H]1/C(=C\OC)C(=O)OC	Not Active	–	–	166 mg/kg	–	–	65%	–	–	–
CC[C@@H]1CN2CC[C@]3(Nc4cccc(-c5ccccc5)c4C3=O)[C@@H]2C[C@@H]1/C(=C\OC)C(=O)OC	Not Active	–	171 nM	1 mg/kg	0.91 nM	0.8 nM	123%	1.4 nM	51 nM	EC50 [10]: 0.83 nM; Emax [11]: 89%
CC[C@@H]1CN2CC[C@@]3(O)C(=Nc4cccc(OC)c43)[C@@H]2C[C@@H]1/C(=C\OC)C(=O)OC	Not Active	–	2520 nM	0.46 mg/kg	37 nM	–	77%	53 nM	–	inhibition [12]: Dose-dependent effect
CC[C@@H]1CN2CC[C@]3(Nc4cccc(-c5ccoc5)c4C3=O)[C@@H]2C[C@@H]1/C(=C\OC)C(=O)OC	Not Active	39 nM	202 nM	1.1 mg/kg	0.94 nM	1.5 nM	100%	1.5 nM	39 nM	–
CN1CC[C@]23c4c5ccc(O)c4O[C@H]2[C@@H](O)C=C[C@H]3[C@H]1C5 [MORPHINE]	–	–	–	–	–	–	–	–	–	ED50 [13]: 2 to 2.5 mg/kg; ED50 [14]: 1.7 mg/kg; ED50 [15]: 12.1 mg/kg; Activity [16]: inactive
CC[C@@H]1CN2CC[C@]3(Nc4cccc(O)c4C3=O)[C@@H]2C[C@@H]1/C(=C\OC)C(=O)OC	Not Active	293 nM	–	0.18 mg/kg	1.4 nM	6.1 nM	124%	2 nM	170 nM	–
CC1(C)SSC(C)(C)[C@@H](NC(=O)[C@@H](N)Cc2ccc(O)cc2)C(=O)NCC(=O)N[C@@H](Cc2ccccc2)C(=O)N[C@H]1C(=O)O	–	–	–	–	–	–	–	–	–	Activity [17]: inactive
CC[C@@H]1CN2CC[C@]3(Nc4cccc(C#N)c4C3=O)[C@@H]2C[C@@H]1/C(=C\OC)C(=O)OC	Not Active	73 nM	721 nM	0.32 mg/kg	0.5 nM	2.4 nM	122%	0.7 nM	47 nM	–
CC[C@@H]1CN2CC[C@]3(Nc4cccc(OC(C)=O)c4C3=O)[C@@H]2C[C@@H]1/C(=C\OC)C(=O)OC	–	–	–	0.38 mg/kg	2.5 nM	20 nM	120%	3.9 nM	31 nM	–
CC[C@@H]1CN2CC[C@@]3(C(=O)c4c(OC)cccc4N3C)[C@@H]2C[C@@H]1/C(=C\OC)C(=O)OC	–	–	–	–	375 nM	> 1000 nM	–	–	> 1000 nM	–
CC[C@@H]1CN2CC[C@@]3(C(=O)c4c(OC)cccc4N3Cc3ccccc3)[C@@H]2C[C@@H]1/C(=C\OC)C(=O)OC	–	–	–	–	249 nM	258 nM	–	–	136 nM	–
C[C@@H](NC(=O)[C@@H](N)Cc1ccc(O)cc1)C(=O)NCC(=O)N(C)[C@@H](Cc1ccccc1)C(=O)NCCO [DAMGO]	Active	–	–	–	–	–	–	–	–	–
